Measured values reported in PMC5218480 (PLoS ONE, 2017).

Tested on: MV-4-11 cells
Assay: Gene expression microarray analysis (Affymetrix PrimeView) and GSEA
Format: cell-based, human
Set-up: RFU PODN (11730768_x_at) / Fold change /veh PODN (11730768_x_at) / RFU LINC00158 (11744669_a_at) / Fold change /veh LINC00158 (11744669_a_at) / RFU DUSP10 (11751237_a_at) / Fold change /veh DUSP10 (11751237_a_at) / RFU ID3 (11757404_x_at) / Fold change /veh ID3 (11757404_x_at) / RFU PLEKHG5 (11737974_s_at) / Fold change /veh PLEKHG5 (11737974_s_at) / RFU LRRC4B (11730491_at) / Fold change /veh LRRC4B (11730491_at) / RFU GIMAP4 (11747438_a_at) / Fold change /veh GIMAP4 (11747438_a_at) / RFU KRT8 (11758183_x_at) / Fold change /veh KRT8 (11758183_x_at) / RFU CNN1 (11734310_a_at) / Fold change /veh CNN1 (11734310_a_at) / RFU VPS37D (11726825_at) / Fold change /veh VPS37D (11726825_at) / RFU C10orf10 (11716522_x_at) / Fold change /veh C10orf10 (11716522_x_at) / RFU KIR2DL2 /// KIR2DL4 /// KIR2DL5A /// KIR2DL5B /// KIR2DS1 /// KIR2DS2 /// KIR2DS3 /// KIR2DS4 /// KIR3DL3 /// KIR3DL3 /// KIR3DS1 (11738374_at) / Fold change /veh KIR2DL2 /// KIR2DL4 /// KIR2DL5A /// KIR2DL5B /// KIR2DS1 /// KIR2DS2 /// KIR2DS3 /// KIR2DS4 /// KIR3DL3 /// KIR3DL3 /// KIR3DS1 (11738374_at) / RFU C1QL1 (11718748_at) / Fold change /veh C1QL1 (11718748_at) / RFU TMPRSS4 (11747572_a_at) / Fold change /veh TMPRSS4 (11747572_a_at) / RFU HAMP (11756126_x_at) / Fold change /veh HAMP (11756126_x_at) / RFU RNFT2 (11725882_a_at) / Fold change /veh RNFT2 (11725882_a_at) / RFU NR4A2 (11747474_a_at) / Fold change /veh NR4A2 (11747474_a_at) / RFU ABCC12 (11746883_a_at) / Fold change /veh ABCC12 (11746883_a_at) / RFU TMEM136 (11760407_x_at) / Fold change /veh TMEM136 (11760407_x_at) / RFU CLDN22 /// WWC2 (11732394_at) / Fold change /veh CLDN22 /// WWC2 (11732394_at) / RFU HLA-DPB1 (11760878_x_at) / Fold change /veh HLA-DPB1 (11760878_x_at) / RFU SPINT1 (11716480_a_at) / Fold change /veh SPINT1 (11716480_a_at) / RFU GAP43 (11754022_s_at) / Fold change /veh GAP43 (11754022_s_at) / RFU A4GNT (11735810_at) / Fold change /veh A4GNT (11735810_at) / RFU PRB3 (11715151_x_at) / Fold change /veh PRB3 (11715151_x_at) / RFU TUBB4B (11761932_at) / Fold change /veh TUBB4B (11761932_at) / RFU CAPN14 (11732068_a_at) / Fold change /veh CAPN14 (11732068_a_at) / RFU TMCC2 (11721928_a_at) / Fold change /veh TMCC2 (11721928_a_at) / RFU IRGQ (11745062_a_at) / Fold change /veh IRGQ (11745062_a_at) / RFU FAM174B (11720279_a_at) / Fold change /veh FAM174B (11720279_a_at) / RFU TMPRSS4 (11748680_a_at) / Fold change /veh TMPRSS4 (11748680_a_at) / RFU FAM212B (11763350_a_at) / Fold change /veh FAM212B (11763350_a_at) / RFU PLEKHG5 (11743358_a_at) / Fold change /veh PLEKHG5 (11743358_a_at) / RFU ZSCAN30 (11745921_a_at) / Fold change /veh ZSCAN30 (11745921_a_at) / RFU CMKLR1 (11741424_a_at) / Fold change /veh CMKLR1 (11741424_a_at) / RFU LOC101060620 /// MAPK8IP1 (11723275_at) / Fold change /veh LOC101060620 /// MAPK8IP1 (11723275_at) / RFU SPTSSB (11747773_x_at) / Fold change /veh SPTSSB (11747773_x_at) / RFU PRSS12 (11739890_at) / Fold change /veh PRSS12 (11739890_at) / RFU BIN1 (11741810_x_at) / Fold change /veh BIN1 (11741810_x_at) / RFU WNT11 (11732464_a_at) / Fold change /veh WNT11 (11732464_a_at) / RFU C10orf10 (11716521_a_at) / Fold change /veh C10orf10 (11716521_a_at) / RFU C5orf56 (11738089_at) / Fold change /veh C5orf56 (11738089_at) / RFU CYB561 (11721691_x_at) / Fold change /veh CYB561 (11721691_x_at) / RFU ANKRD19P (11752326_a_at) / Fold change /veh ANKRD19P (11752326_a_at) / RFU OR2T12 /// OR2T33 /// OR2T8 (11738714_s_at) / Fold change /veh OR2T12 /// OR2T33 /// OR2T8 (11738714_s_at) / RFU VCAN (11748164_a_at) / Fold change /veh VCAN (11748164_a_at) / RFU JSRP1 (11732532_at) / Fold change /veh JSRP1 (11732532_at) / RFU KRTAP10-11 (11738290_x_at) / Fold change /veh KRTAP10-11 (11738290_x_at) / RFU MYO3A (11730013_a_at) / Fold change /veh MYO3A (11730013_a_at) / RFU EBF3 (11725865_a_at) / Fold change /veh EBF3 (11725865_a_at) / RFU CAMK2N1 (11719241_x_at) / Fold change /veh CAMK2N1 (11719241_x_at) / RFU C5orf56 (11738088_a_at) / Fold change /veh C5orf56 (11738088_a_at) / RFU OLFML3 (11715873_a_at) / Fold change /veh OLFML3 (11715873_a_at) / RFU LOC100653217 /// NTM (11731650_a_at) / Fold change /veh LOC100653217 /// NTM (11731650_a_at) / RFU MAPK11 (11762145_a_at) / Fold change /veh MAPK11 (11762145_a_at) / RFU FIZ1 (11724087_x_at) / Fold change /veh FIZ1 (11724087_x_at) / RFU OASL (11726364_x_at) / Fold change /veh OASL (11726364_x_at) / RFU SOX15 (11748057_x_at) / Fold change /veh SOX15 (11748057_x_at) / RFU CD79A (11719716_a_at) / Fold change /veh CD79A (11719716_a_at) / RFU HIST1H1D (11736915_at) / Fold change /veh HIST1H1D (11736915_at) / RFU CASKIN2 (11723855_a_at) / Fold change /veh CASKIN2 (11723855_a_at) / RFU LOC730098 (11760151_x_at) / Fold change /veh LOC730098 (11760151_x_at) / RFU OR4N2 (11742367_at) / Fold change /veh OR4N2 (11742367_at) / RFU PRRT2 (11749266_a_at) / Fold change /veh PRRT2 (11749266_a_at) / RFU SNX32 (11753110_a_at) / Fold change /veh SNX32 (11753110_a_at) / RFU CDHR5 (11726645_a_at) / Fold change /veh CDHR5 (11726645_a_at) / RFU RCAN1 (11760418_a_at) / Fold change /veh RCAN1 (11760418_a_at) / RFU FAM167A (11723789_a_at) / Fold change /veh FAM167A (11723789_a_at) / RFU FAM26E (11764081_at) / Fold change /veh FAM26E (11764081_at) / RFU ISYNA1 (11749810_s_at) / Fold change /veh ISYNA1 (11749810_s_at) / RFU ACY1 (11761880_at) / Fold change /veh ACY1 (11761880_at) / RFU 11764098_at / Fold change /veh 11764098_at / RFU SAMD14 (11745864_x_at) / Fold change /veh SAMD14 (11745864_x_at) / RFU NPB (11741838_a_at) / Fold change /veh NPB (11741838_a_at) / RFU TMPRSS6 (11731388_a_at) / Fold change /veh TMPRSS6 (11731388_a_at) / RFU KRTAP10-2 (11738614_at) / Fold change /veh KRTAP10-2 (11738614_at) / RFU ARHGAP8 /// PRR5-ARHGAP8 (11727945_x_at) / Fold change /veh ARHGAP8 /// PRR5-ARHGAP8 (11727945_x_at) / RFU KRTAP5-7 /// NADSYN1 (11734609_at) / Fold change /veh KRTAP5-7 /// NADSYN1 (11734609_at) / RFU RASL12 (11751679_a_at) / Fold change /veh RASL12 (11751679_a_at) / RFU CDKN2B (11736163_a_at) / Fold change /veh CDKN2B (11736163_a_at) / RFU PRF1 (11729649_at) / Fold change /veh PRF1 (11729649_at) / RFU, ZNF638 /// ZNF638-IT1 / Fold change vs veh, ZNF638 /// ZNF638-IT1 / RFU, PANK3 / Fold change vs veh, PANK3 / RFU, SH3YL1 / Fold change vs veh, SH3YL1 / RFU, ZEB2 / Fold change vs veh, ZEB2 / RFU, NRIP1 / Fold change vs veh, NRIP1 / RFU, PTTG1IP / Fold change vs veh, PTTG1IP / RFU, CAPN2 / Fold change vs veh, CAPN2 / RFU, MED14 / Fold change vs veh, MED14 / RFU, SNORA58 / Fold change vs veh, SNORA58 / RFU, C1orf63 / Fold change vs veh, C1orf63 / RFU, LRRFIP1 / Fold change vs veh, LRRFIP1 / RFU, NDUFAF7 / Fold change vs veh, NDUFAF7 / RFU, SLC12A2 / Fold change vs veh, SLC12A2 / RFU, IBTK / Fold change vs veh, IBTK / RFU, ESF1 / Fold change vs veh, ESF1 / Fold change vs veh, TMEM50B / RFU, TAOK1 / Fold change vs veh, TAOK1 / RFU, ACBD3 / Fold change vs veh, ACBD3 / RFU, TMA16 / Fold change vs veh, TMA16 / RFU, RWDD3 / Fold change vs veh, RWDD3 / RFU, BCAT1 / Fold change vs veh, BCAT1 / RFU, EDEM3 / Fold change vs veh, EDEM3 / RFU, TMEM33 / Fold change vs veh, TMEM33 / RFU, WDR75 / Fold change vs veh, WDR75 / RFU, AHCTF1 / Fold change vs veh, AHCTF1 / RFU, TFRC / Fold change vs veh, TFRC / RFU, ZDHHC17 / Fold change vs veh, ZDHHC17 / RFU, NOM1 / Fold change vs veh, NOM1 / RFU, ARL8B / Fold change vs veh, ARL8B / RFU, ZBTB11 / Fold change vs veh, ZBTB11 / RFU, TAMM41 / Fold change vs veh, TAMM41 / RFU, KIAA1704 /// LOC100996395 / Fold change vs veh, KIAA1704 /// LOC100996395 / RFU, ING1 / Fold change vs veh, ING1 / RFU, TRMT61B / Fold change vs veh, TRMT61B / RFU, FUBP3 / Fold change vs veh, FUBP3 / RFU, TP53 / Fold change vs veh, TP53 / RFU, TNKS2 / Fold change vs veh, TNKS2 / RFU, ZFP14 / Fold change vs veh, ZFP14 / RFU, ACTR2 / Fold change vs veh, ACTR2 / RFU, PPP3R1 / Fold change vs veh, PPP3R1 / RFU, PIK3R1 / Fold change vs veh, PIK3R1 / RFU, HNRNPA1 / Fold change vs veh, HNRNPA1 / RFU, RNF170 / Fold change vs veh, RNF170 / RFU, ZNF28 / Fold change vs veh, ZNF28 / RFU, RNGTT / Fold change vs veh, RNGTT / RFU, OGT / Fold change vs veh, OGT / RFU, BRD1 / Fold change vs veh, BRD1 / RFU, MARS / Fold change vs veh, MARS / RFU, ZNF655 / Fold change vs veh, ZNF655 / RFU, FAHD1 / Fold change vs veh, FAHD1 / RFU, BDP1 / Fold change vs veh, BDP1 / RFU, LRRCC1 / Fold change vs veh, LRRCC1 / RFU, ARID1A / Fold change vs veh, ARID1A / RFU, ZNF146 / Fold change vs veh, ZNF146 / RFU, ZNF330 / Fold change vs veh, ZNF330 / RFU, GPN3 / Fold change vs veh, GPN3 / RFU, C9orf123 / Fold change vs veh, C9orf123 / RFU, N4BP2L2 / Fold change vs veh, N4BP2L2 / RFU, ARFIP1 / Fold change vs veh, ARFIP1 / RFU, FAM179B / Fold change vs veh, FAM179B / RFU, BCL10 / Fold change vs veh, BCL10 / RFU, UHRF1BP1L / Fold change vs veh, UHRF1BP1L / RFU, BET1 / Fold change vs veh, BET1 / RFU, CNOT2 / Fold change vs veh, CNOT2 / RFU, ZNF268 / Fold change vs veh, ZNF268 / Fold change vs veh, ZNF507 / RFU, DGCR2 / Fold change vs veh, DGCR2 / RFU, WDSUB1 / Fold change vs veh, WDSUB1 / Fold change vs veh, HSP90B1 /// MIR3652 / RFU, ADSS / Fold change vs veh, ADSS / RFU, GK / Fold change vs veh, GK / RFU, ZNF148 / Fold change vs veh, ZNF148 / RFU, TAF9 / Fold change vs veh, TAF9 / RFU, SLC1A5 / Fold change vs veh, SLC1A5 / RFU, SLMO2 / Fold change vs veh, SLMO2 / RFU, ABCC4 / Fold change vs veh, ABCC4 / RFU, LOC101060439 /// RAP1B / Fold change vs veh, LOC101060439 /// RAP1B / RFU, RFX7 / Fold change vs veh, RFX7 / RFU, GTPBP10 / Fold change vs veh, GTPBP10 / RFU, CNEP1R1 / Fold change vs veh, CNEP1R1 / RFU, BIVM-ERCC5 /// ERCC5 / Fold change vs veh, BIVM-ERCC5 /// ERCC5 / RFU, ILF3 / Fold change vs veh, ILF3 / RFU 11762660_at / Fold change /veh 11762660_at / RFU VCAN (11757783_s_at) / Fold change /veh VCAN (11757783_s_at) / RFU DDX43 (11728927_at) / Fold change /veh DDX43 (11728927_at) / RFU KRT8 (11758188_x_at) / Fold change /veh KRT8 (11758188_x_at) / RFU NKD1 (11759106_at) / Fold change /veh NKD1 (11759106_at) / RFU SRD5A1 (11742802_a_at) / Fold change /veh SRD5A1 (11742802_a_at) / RFU TPSAB1 /// TPSB2 (11721975_s_at) / Fold change /veh TPSAB1 /// TPSB2 (11721975_s_at) / RFU GSTM3 (11746129_a_at) / Fold change /veh GSTM3 (11746129_a_at) / RFU IL23R (11737362_x_at) / Fold change /veh IL23R (11737362_x_at) / RFU TMEM51 (11727254_a_at) / Fold change /veh TMEM51 (11727254_a_at) / RFU PIWIL2 (11732686_x_at) / Fold change /veh PIWIL2 (11732686_x_at) / RFU ORM1 (11744905_x_at) / Fold change /veh ORM1 (11744905_x_at) / RFU CCDC152 (11743942_at) / Fold change /veh CCDC152 (11743942_at) / RFU ECM1 (11717891_a_at) / Fold change /veh ECM1 (11717891_a_at) / RFU IL23R (11748794_a_at) / Fold change /veh IL23R (11748794_a_at) / RFU TNFAIP8L3 (11732012_x_at) / Fold change /veh TNFAIP8L3 (11732012_x_at) / RFU MBOAT4 (11741988_at) / Fold change /veh MBOAT4 (11741988_at) / RFU 11764193_at / Fold change /veh 11764193_at / RFU TMEM53 (11763286_at) / Fold change /veh TMEM53 (11763286_at) / RFU MAGEB2 (11727129_at) / Fold change /veh MAGEB2 (11727129_at) / RFU TMEM200A (11744735_a_at) / Fold change /veh TMEM200A (11744735_a_at) / RFU CCDC152 (11751479_a_at) / Fold change /veh CCDC152 (11751479_a_at) / RFU FAM211A (11726209_a_at) / Fold change /veh FAM211A (11726209_a_at) / RFU RGS16 (11746705_a_at) / Fold change /veh RGS16 (11746705_a_at) / RFU VCAN (11755009_s_at) / Fold change /veh VCAN (11755009_s_at) / RFU RHOB (11743442_s_at) / Fold change /veh RHOB (11743442_s_at) / RFU RGS16 (11720943_a_at) / Fold change /veh RGS16 (11720943_a_at) / RFU RGS16 (11720944_at) / Fold change /veh RGS16 (11720944_at) / RFU, VPS4B / Fold change vs veh, VPS4B / RFU, CREB1 / Fold change vs veh, CREB1 / RFU, DNAJC13 / Fold change vs veh, DNAJC13 / RFU, GNAQ / Fold change vs veh, GNAQ / RFU, CDK5R1 / Fold change vs veh, CDK5R1 / RFU, ZRANB3 / Fold change vs veh, ZRANB3 / RFU, CUL4A / Fold change vs veh, CUL4A / RFU, CCNY / Fold change vs veh, CCNY / RFU, UFL1 / Fold change vs veh, UFL1 / RFU, COG3 / Fold change vs veh, COG3 / RFU, DIAPH2 / Fold change vs veh, DIAPH2 / RFU, SKA2 / Fold change vs veh, SKA2 / RFU, AFF3 / Fold change vs veh, AFF3 / RFU, LMF1 / Fold change vs veh, LMF1 / RFU, IPO11 / Fold change vs veh, IPO11 / RFU, DFFB / Fold change vs veh, DFFB / RFU, FOXP1 / Fold change vs veh, FOXP1 / RFU, CARD8 / Fold change vs veh, CARD8 / RFU, STRN3 / Fold change vs veh, STRN3 / RFU, ADK / Fold change vs veh, ADK / RFU, RASSF2 / Fold change vs veh, RASSF2 / RFU, WIPF1 / Fold change vs veh, WIPF1 / RFU, LARP1B / Fold change vs veh, LARP1B / RFU, RASA1 / Fold change vs veh, RASA1 / RFU, RB1 / Fold change vs veh, RB1 / RFU, PPFIA1 / Fold change vs veh, PPFIA1 / RFU, MAT2A / Fold change vs veh, MAT2A / RFU, CCT5 / Fold change vs veh, CCT5 / RFU, WDR92 / Fold change vs veh, WDR92 / RFU, CUX1 / Fold change vs veh, CUX1 / RFU, TTC7A / Fold change vs veh, TTC7A / RFU, TMEM135 / Fold change vs veh, TMEM135 / RFU, DEPTOR / Fold change vs veh, DEPTOR / RFU, CPM / Fold change vs veh, CPM / RFU, DNAJB6 / Fold change vs veh, DNAJB6 / RFU, CACNA2D3 / Fold change vs veh, CACNA2D3 / RFU, DTX4 / Fold change vs veh, DTX4 / RFU, TFCP2 / Fold change vs veh, TFCP2 / RFU, GMCL1 /// GMCL1P1 / Fold change vs veh, GMCL1 /// GMCL1P1 / RFU, AEBP2 / Fold change vs veh, AEBP2 / RFU, SNHG1 /// SNORD22 /// SNORD25 /// SNORD26 /// SNORD27 /// SNORD28 /// SNORD29 /// SNORD31 / Fold change vs veh, SNHG1 /// SNORD22 /// SNORD25 /// SNORD26 /// SNORD27 /// SNORD28 /// SNORD29 /// SNORD31 / Fold change (Aza/veh), C12orf56 (ProbeSet 11735607_a_at) / Fold change (ACY-1035/veh), C12orf56 (ProbeSet 11735607_a_at) / Fold change (Aza/veh), FGFR1OP (ProbeSet 11751329_s_at) / Fold change (ACY-1035/veh), FGFR1OP (ProbeSet 11751329_s_at) / Fold change (Aza/veh), VPS36 (ProbeSet 11739960_a_at) / Fold change (ACY-1035/veh), VPS36 (ProbeSet 11739960_a_at) / RFU SYPL1 (11715823_x_at) / Fold change /veh SYPL1 (11715823_x_at) / RFU IGFBP7 (11715501_s_at) / Fold change /veh IGFBP7 (11715501_s_at) / RFU REEP3 (11722064_at) / Fold change /veh REEP3 (11722064_at) / RFU IGLL1 (11728026_x_at) / Fold change /veh IGLL1 (11728026_x_at): dose or concentration left out as unconfirmed
Settings: ProbeSet 11743510_at; LIST D

Which “Fold change vs veh, UFL1” value does the source give for `Nc1ccc(-c2cccs2)cc1NC(=O)c1ccc2c(c1)cc(C1CC1)n2CCN1CCOCC1` [ACY-1035] here?
The value was 0.85.
